Experiments:
[1] = tested on: A431 cells; experiment: Imaging of endogenous H2O2 in EGF-stimulated A431 cells; format: cell-based
Protocol: (A) Confocal microscopy (top row) and overlaid brightfield (bottom row) images of A431 cells stained with PG1-FM (10 μM) and then treated with EGF (1 μg/mL) or vehicle control for 30 min, washed and imaged, or first pre-treated with NADPH oxidase inhibitor DPI (5 μM) or antioxidant ebselen (5 μM) for 30 min in HBSS solution before PG1-FM staining and EGF stimulation. (B) Quantification of experiments.

[2] = tested on: RAW 264.7 macrophages; experiment: Imaging and flow cytometry of endogenous H2O2 in PMA-stimulated RAW264.7 macrophages; format: cell-based, mouse; details: for probe fluorescence in PMA-treated RAW 264.7 cells vs control: probe 10 μM, PMA 1 μg/mL 60 min, confocal microscopy and flow cytometry
Protocol: (A) Confocal microscopy (top row) and overlaid brightfield (bottom row) images of RAW264.7 macrophages stained with PG1-FM (10 μM) and then treated with PMA (1 μg/mL) or vehicle control for 60 min, washed and imaged, or first pre-treated with NADPH oxidase inhibitor DPI (5 μM) or antioxidant ebselen (5 μM) for 30 min in HBSS solution before PG1-FM staining and PMA stimulation. (B) Flow cytometry histograms and (C) quantification of mean value fluorescence intensity using PG1-FM under same conditions as (A). (D) Confocal microscopic images of RAW264.7 macrophages stained with PR1-FM (10 μM) under same conditions as (A). **P<0.01.
We next tested the ability of PG1-FM and PR1-FM to monitor H2O2 production in RAW 264.7 macrophages.
RAW264.7 cells were plated on a μ-slide 8 well (ibidi) and cultured at 37° C. overnight in a 5% CO2 incubator. The cells were pretreated with inhibitors, DPI (5 μM) or Ebselen (10 μM), for 30 min in HBSS. Afterward, the cells were co-incubated with PG1-FM (10 μM) and PMA (1 μg/mL) with or without DPI or Ebselen. The cells were observed on confocal microscope after washing with HBSS twice.
RAW264.7 cells were plated on a 6 well plate and cultured at 37° C. overnight in a 5% CO2 incubator. The cells were pretreated with inhibitors, DPI (5 μM) or Ebselen (10 μM), for 30 min in HBSS. Afterward, the cells were co-incubated with PG1-FM (5 μM) and PMA (1 μg/mL) with or without DPI or Ebselen. The cells were harvested by 0.05% Trypsin with EDTA, filtered, and analyzed with flow cytometer.

[3] = tested on: zebrafish; experiment: In vivo live imaging of endogenous H2O2 in zebrafish, tail fin cut model
Protocol: FIG. 6. Confocal microscopic images of zebrafish labeled with PR1-FM. Zebrafish embryos in E3 medium containing P1-FM (5 μM) were incubated overnight. The fishes were additionally incubated for 1 hour with containing DPI (100 nM) before the tail fin cut.
We sought to apply PR1-FM for in vivo live imaging to detect endogenous hydrogen peroxide production. PR1-FM was tested with live zebrafish in the regenerated fin model. The larvae at two days post-fertilization (dpf) was pre-stained with PR1-FM (5 μM) overnight before tail fin cut. […] Taken together, PR1-FM can be useful for detecting hydrogen peroxide in live zebrafish.

[4] = Fluorescence response of probes to H2O2 in buffer; details: 1 μM probe, 25 μM H2O2, PBS (pH 7.4), 37° C.
Protocol: (§1) FIGS. 1A-I. Fluorescence responses and activity-based sensing and labeling properties of PG1-FM, MitoPY1-FM, and PR1-FM. (A, B, C) Activity-based sensing fluorescence responses of 1 μM PG1-FM (A), 1 μM MitoPY1-FM (B), and 1 μM PR1-FM (C) to 25 μM H2O2. Data were acquired in PBS (pH 7.4) at 37° C. (D, E, F) Fluorescence responses of 1 μM PG1-FM (D), 1 μM MitoPY1-FM (E), and 1 μM PR1-FM (F) towards biologically relevant competing reactive oxygen species and reactive nitrogen species. (G, H, I) H2O2-dependent activity-based labeling of PG1-FM (G), MitoPY1-FM (H), and PR1-FM (I) to BSA. A solution of BSA (0.5 mg/mL) and PG1-FM (1 μM), MitoPY1-FM (1 μM), and PR1-FM (1 μM) in PBS (pH 7.4) was incubated with or without H2O2(100 μM) and analyzed by SDS-PAGE gel.
(§2) We first evaluated the in vitro response of PG1-FM, MitoPY1-FM, and PR1-FM to hydrogen peroxide in aqueous solution buffered to physiological pH. […] PG1-FM converted to a fluorescent product that undergoes subsequent hydrolysis with H2O by LC analysis (FIG. 9A-B). […] To establish activity-based labeling of PG1-FM, MitoPY1-FM, and PR1-FM in a H2O2-dependent manner, we incubated the probes with bovine serum albumin (BSA) as a model protein substrate in the presence or absence of H2O2, and the reactions were analyzed by SDS-PAGE.
(§3) PG1-FM was dissolved in DMSO to obtain a 1 mM stock solution. The fluorescence spectra of PG1-FM (1 μM) were measured in PBS (−) containing 25 μM of H2O2, OCl^−, TBHP, O2^−, ONOO^−, or NO OCl^−, O2^−, ONOO^−, or NO were generated by using NaOCl (Fluka), potassium superoxide (SIGMA), Peroxynitrite (Cayman), and PROLI NONOate (Cayman), respectively. The fluorescence spectra of PG1-FM were collected an emission window between 500 nm to 650 nm with excitation at 488 nm.

[5] = ROS selectivity analysis (fluorescence response to competing ROS/RNS); details: 1 μM probe; OCl−, TBHP, O2−, ONOO−, NO; PBS
Protocol: as §1
FIG. 8. Fluorescence spectra of PG1-FM reacted with […] of OCl^−, TBHP, O2^−, ONOO^−, NO or PBS (control). PG1-FM (1 μM) was incubated with […] of H2O2, OCl^−, TBHP, O2^−, ONOO^−, or NO at 37° C. in PBS (−). The mixtures were measured by fluorometer at any incubating times (0, 5, 15, 30, 45, and 60 min).
as §3

[6] = biological target: bovine serum albumin (BSA) (Bos taurus, UniProt P02769); experiment: H2O2-dependent activity-based labeling of BSA, SDS-PAGE; format: biochemical; details: BSA 0.5 mg/mL, with or without H2O2 (100 μM)
Sequence of bovine serum albumin (BSA) (P02769 25-607): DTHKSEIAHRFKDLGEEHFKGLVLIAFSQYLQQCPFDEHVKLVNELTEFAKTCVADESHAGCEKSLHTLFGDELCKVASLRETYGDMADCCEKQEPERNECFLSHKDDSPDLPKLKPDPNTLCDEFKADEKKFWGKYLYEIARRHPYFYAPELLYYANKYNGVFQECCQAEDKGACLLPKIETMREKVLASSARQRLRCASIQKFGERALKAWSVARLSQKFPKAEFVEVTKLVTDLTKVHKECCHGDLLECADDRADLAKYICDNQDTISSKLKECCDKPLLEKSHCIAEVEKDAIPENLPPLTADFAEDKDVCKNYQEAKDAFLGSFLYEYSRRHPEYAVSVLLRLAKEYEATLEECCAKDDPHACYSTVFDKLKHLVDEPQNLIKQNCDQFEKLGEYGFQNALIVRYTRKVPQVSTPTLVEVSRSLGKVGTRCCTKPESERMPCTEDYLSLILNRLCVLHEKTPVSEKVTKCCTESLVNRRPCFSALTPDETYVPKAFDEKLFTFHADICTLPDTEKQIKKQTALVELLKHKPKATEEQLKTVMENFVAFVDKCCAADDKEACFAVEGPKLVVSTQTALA
Protocol: as §1, §2
PG1-FM (10 μM) and BSA (0.5 mg/mL) were incubated at 25° C. for 1 h with or without H2O2 (100 μM). Afterward, Ebselen (100 μM) was added to the mixture to quench excess of H2O2. The obtained samples were separated with Novex™ Mini Gel (Thermo). The gel was first analyzed by ChemiDoc™ MP (Bio-Rad) to take a fluorescence images, and stained with Coomassie brilliant blue (CBB) Solution

[7] = tested on: HeLa cells; experiment: Confocal imaging of exogenous H2O2 in live HeLa cells; format: cell-based; details: 5 μM probe; for probe fluorescence in HeLa cells on exogenous H2O2 treatment: H2O2 (1 mM) 60 min vs vehicle, confocal
Protocol: FIGS. 2A-C. Exogenous H2O2 detection. Confocal microscopic images of HeLa cell stained with PG1-FM, PR1-FM, and MitoPY1-FM. (A, B) HeLa cells were pe-stained with PG1-FM (5 μM) or PR1-FM (5 μM) at 37° C. in a 5% CO2 incubator. After incubating for 30 min, the cells were washed with HBSS twice, and treated with H2O2 (1 mM) for 60 min. The cells were observed on confocal microscope after washing with HBSS twice. (C) HeLa cells were pe-stained with MitoPY1-FM (5 μM) at 37° C. in a 5% CO2 incubator. After incubating for 30 min, the cells were washed with HBSS twice, and treated with H2O2 (1 mM) for 60 min. The cells were observed on confocal microscope after staining with MitoBright LT Green for 30 mi. Scale bar: 50 μm.
We next assessed the ability of PG1-FM, MitoPY1-FM, and PR1-FM for visualizing changes in H2O2 levels in live cells with exogenous H2O2 treatment. HeLa cells were pre-stained with 5 μM of PG1-FM, MitoPY1-FM, or PR1-FM, treated with H2O2 (1 mM) or vehicle control, washed, and imaged. MitoPY1-FM stained HeLa cells were co-stained with MitoBright LT Green before imaging. […] We observed that the probes load evenly throughout the cell and responds to elevations in H2O2(FIGS. 2A, 2B, and 2C).
Cells were grown at the UC Berkeley Tissue Culture Facility. HeLa, RAW264.7, and A431 cells were cultured in DMEM (high glucose) supplemented with 10% (v/v) fetal bovine serum, GlutaMAX, and NEAA. All cells were maintained in a humidified 5% CO2 incubator at 37° C.

[8] = tested on: HeLa cells; experiment: Imaging of mitochondrial H2O2 in HeLa cells treated with Antimycin or Rotenone; format: cell-based
Protocol: FIGS. 7A-B. Confocal microscopic images of HeLa cell stained with MitoPY1-FM. (A) HeLa cell was stained with MitoPY1-FM (5 μM) for 1 h. After washing the cell with non-FBS medium, the cell was treated with Antimycin (1 μM) or Rotenone (1 μM) for 24 h. The cells were observed on confocal microscope after washing the cell. (B) Confocal microscopic images of fixed HeLa cell stained with MitoPY1-FM and Tom 20 antibody. HeLa cells were stained with MitoPY1-FM and then exposed with antimycin A. The treated cells were fixed and stained with Tom 20 antibody before the observation.
We evaluated MitoPY1-FM for imaging mitochondrial H2O2 fluxes produced by inhibition of mitochondrial electron transporter chain. HeLa cells were pre-stained with MitoPY1-FM (5 μM) and stimulated by Antimycin (1 μM) or Rotenone (1 μM) for 24 h to induce ROS and oxidative stress.

[9] = tested on: HeLa cells; experiment: Imaging and flow cytometry of endogenous H2O2 in paraquat-treated HeLa cells; format: cell-based; details: paraquat 1 mg/mL 24 h; confocal microscopy, verified by flow cytometry
Protocol: FIGS. 3A-C. PG1-FM imaging of endogenous H2O2 generation in live HeLa cells under oxidative stress conditions stimulated by paraquat. (A) Confocal microscopy images of HeLa cells treated with or without paraquat (1 mg/mL) for 24 h, stained with PG1-FM (10 μM) for 1 h, washed twice with HBSS, and imaged. Scale bar: 50 μm. (B) Flow cytometry analysis of the cells treated with or without paraquat using PG1-FM using same conditions as (A). (C) Flow cytometric data quantified with mean value. **P<0.01.
We next utilized PG1-FM for imaging endogenous H2O2 fluxes produced by multiple types of cell models under various stimulation conditions. Our first set of experiments along these lines evaluated the performance of the probe under conditions of oxidative stress induced by paraquat treatment. HeLa cells were stimulated with or without paraquat (1 mg/mL) for 24 h to induce ROS and oxidative stress, followed by staining with PG1-FM for 30 min, washing, and imaging. […] Because the probe is cell-trappable, we verified the observed fluorescence enhancements using flow cytometry (FIG. 3B, 3C), highlighting its utility in this analytical method as well.

SMILES	effect of inhibitor on H2O2-induced PG1-FM fluorescence in EGF-stimulated A431 cells ([1]; inhibitor 5 μM pre-treatment 30 min)	effect of inhibitor on PMA-induced probe fluorescence increase in RAW 264.7 cells ([2]; inhibitor pre-treatment 30 min in HBSS)	effect of inhibitor on PR1-FM fluorescence in zebrafish after tail fin cut ([3]; DPI 100 nM, 1 hour before the tail fin cut)	fluorescence response after treatment with H2O2 [4]	selectivity of fluorescence response for H2O2 over other ROS and RNS [5]	H2O2-dependent fluorescent labeling of BSA [6]	localisation by co-staining with MitoBright LT Green ([7]; HeLa cells, H2O2 (1 mM))	probe fluorescence in mitochondria of HeLa cells exposed to electron transport chain inhibitors vs untreated ([8]; MitoPY1-FM 5 μM, Antimycin (1 μM) or Rotenone (1 μM) 24 h)	localisation of probe fluorescence in fixed HeLa cells co-stained with Tom20 antibody ([8]; antimycin A exposed, fixed cells)	probe fluorescence in HeLa cells on exogenous H2O2 treatment [7]	probe fluorescence in paraquat-exposed vs untreated HeLa cells [9]	probe fluorescence in EGF-stimulated A431 cells vs control ([1]; PG1-FM 10 μM, EGF 1 μg/mL 30 min, confocal)	probe fluorescence in PMA-treated RAW 264.7 cells vs control [2]	probe fluorescence in zebrafish post-cut vs pre-cut of tail fin ([3]; larvae 2 dpf, PR1-FM 5 μM overnight)
c1ccc2c(c1)[I+]c1ccccc1-2 [DPI, diphenyleneiodonium, reference compound]	inhibited H2O2-induced enhancements in PG1-FM fluorescence	fluorescence increases are blocked	lower level of fluorescence											
CC1(C)OB(c2ccc3c(c2CF)Oc2cc(N4CCN(C(=O)CCC[P+](c5ccccc5)(c5ccccc5)c5ccccc5)CC4)ccc2C32OC(=O)c3ccccc32)OC1(C)C.[Br-] (stereo not shown) [MitoPY1-FM, MitoPY1 Fluoromethyl]				clear fluorescence enhancement	highly selective response for H2O2	fluorescent BSA-associated band was observed only under conditions with H2O2	overlapped with MitoBright LT	patent H2O2-dependent fluorescence increases	enhanced on mitochondria					
COc1ccc2c(c1)Oc1c(ccc(B3OC(C)(C)C(C)(C)O3)c1CF)C21OC(=O)c2ccccc21 (stereo not shown) [PG1-FM, Peroxy Green-1 Fluoromethyl]				clear fluorescence enhancement	highly selective response for H2O2	fluorescent BSA-associated band was observed only under conditions with H2O2				fluorescence increase in the whole cells	patent H2O2-dependent fluorescence increases	clear increase in fluorescence	higher PG1-FM and PR1-FM fluorescence relative to control cells	
CN(C)c1ccc2c(c1)[Si](C)(C)c1c(ccc(B3OC(C)(C)C(C)(C)O3)c1CF)C21OC(=O)c2ccccc21 (stereo not shown) [PR1-FM, Peroxy Red-1 Fluoromethyl]				clear fluorescence enhancement	highly selective response for H2O2	fluorescent BSA-associated band was observed only under conditions with H2O2				fluorescence increase in the whole cells			higher PG1-FM and PR1-FM fluorescence relative to control cells	patently higher fluorescence signals in post-cut condition

— patent US12571801B2, “Tandem activity-based sensing and labeling strategy for reactive oxygen species imaging” (The Regents of the University of California, priority 2021, dated 2026)
